Results reported in patent US8796457B2, “Compound useful for the treatment of degenerative and inflammatory diseases” (Galapagos NV, priority 2009, dated 2014).

Columns and labels:
[1] = Microsomal stability, rat; format: in vitro ADME; conditions: rat liver microsomes, 3 μM compound, 37° C.
Experimental: (§1) A 10 mM stock solution of compound in DMSO was diluted 1000 fold in a 182 mM phosphate buffer pH7.4 in a 96 deep well plate (Greiner, Cat no. 780285) and pre-incubated at 37° C.
(§2) 40 μL of deionised water was added to a well of a polypropylene Matrix 2D barcode labelled storage tube (Thermo Scientific) and pre-incubated at 37° C.
(§3) A Glucose-6-phophate-dehydrogenase (G6PDH) working stock solution was prepared in 182 mM phosphate buffer pH7.4 and placed on ice before use. A co-factor containing MgCl2, glucose-6-phosphate and NADP+ was prepared in deionised water and placed on ice before use. […]
(§4) These plates were sealed with sealing mats (MA96RD-04S) of www.kinesis.co.uk and samples were measured at room temperature on LCMS (ZQ 1525 from Waters) under optimized conditions using Quanoptimize to determine the appropriate mass of the parent molecule.
(§5) The samples were analyzed on LCMS with a flow rate of 1 mL/min. […]
(§6) Peak area from the parent compound at time 0 was considered to be 100% remaining. The percentage remaining after 1 hour incubation was calculated from time 0 and was calculated as the percentage remaining. […]
(§7) The data on microsomal stability are expressed as a percentage of the total amount of compound remaining after 60 minutes.

[2] = Microsomal stability, human; format: in vitro ADME; conditions: human liver microsomes, 3 μM compound, 37° C.
Experimental: as §1, §2, §3, §4, §5, §6, §7

JAK1 = JAK1 (Homo sapiens (Human), UniProt P23458); experiment: JAK1 Ki determination assay (polyGT, 33P filter plate); format: biochemical; conditions: Lineweaver-Burk; polyGT substrate, 33P readout
Experimental: For the determination of Ki, different amounts of inhibitor were mixed with the enzyme and the enzymatic reaction was followed as a function of ATP concentration. The Ki was determined by means of double reciprocal plotting of Km vs compound concentration (Lineweaver-Burk plot). JAK1 (Invitrogen, PV4774) was used at a final concentration of 500 ng/ml. […] Measurement of incorporated phosphate into the substrate polyGT was done by loading the samples on a filter plate (using a harvester, Perkin Elmer) and subsequent washing. Incorporated ^33P in polyGT is measured in a Topcount scintillation counter after addition of scintillation liquid to the filter plates (Perkin Elmer).

[3] = test system: HeLa cells, STAT signalling; experiment: JAK-STAT signalling assay (pSTAT1(2)-luciferase reporter, OSM trigger); format: cell-based; conditions: human OSM 33 ng/mL
Experimental: HeLa cells were maintained in Dulbecco's Modified Eagle's Medium (DMEM) containing 10% heat inactivated fetal calf serum, 100 U/mL penicillin and 100 μg/mL streptomycin. HeLa cells were used at 70% confluence for transfection. 20,000 cells in 87 μL cell culture medium were transiently transfected with 40 ng pSTAT1(2)-luciferase reporter (Panomics), 8 ng of LacZ reporter as internal control reporter and 52 ng of pBSK using 0.32 μL Jet-PEI (Polyplus) as transfection reagent per well in 96-well plate format. After overnight incubation at 37° C., 10% CO2, transfection medium was removed. 75 μL of DMEM+1.5% inactivated fetal calf serum was added. 15 μL of compound at 6.7× concentration was added for 60 min and then 10 μL of human OSM (Peprotech) at 33 ng/mL final concentration. […]
40 μL of cell lysate was used to read β-galactosidase activity by adding 180 μL βGal solution (30 μl ONPG 4 mg/mL+150 μL β-Galactosidase buffer (0.06 M Na2HPO4, 0.04 M NaH2PO4, 1 mM MgCl2)) for 20 min. The reaction was stopped by addition of 50 μL Na2CO3 1 M. Absorbance was read at 405 nm
Luciferase activity was measured using 40 μL cell lysate plus 40 μl of Steadylite® as described by the manufacturer (Perkin Elmer), on the Envision (Perkin Elmer). […]

[4] = test system: JAK1-dependent pathway (IL-6 stimulated STAT1 phosphorylation, CD4+ cells) in human whole blood; experiment: Whole blood assay, IL-6 stimulation, Phospho-STAT1 FACS; format: cell-based
Experimental: A flow cytometry analysis was also performed to establish compound selectivity for JAK1 over JAK2, ex vivo using human whole blood.
Remaining diluted Lyse/Fix buffer was discarded.
The stock solution was stored aliquoted at −80° C.
Control-treated samples received DMSO instead of compound.
Human blood was collected in heparinized tubes.

Chain of JAK1 (P23458 866-1154): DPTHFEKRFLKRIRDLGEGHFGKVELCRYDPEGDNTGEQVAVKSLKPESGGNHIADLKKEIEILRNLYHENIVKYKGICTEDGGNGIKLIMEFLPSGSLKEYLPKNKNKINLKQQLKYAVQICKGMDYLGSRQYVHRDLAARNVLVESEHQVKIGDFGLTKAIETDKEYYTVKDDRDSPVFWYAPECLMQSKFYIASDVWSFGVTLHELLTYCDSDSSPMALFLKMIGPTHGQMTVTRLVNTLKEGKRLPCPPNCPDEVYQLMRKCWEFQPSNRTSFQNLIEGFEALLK

Question: What does the source list for CC1(C)CN(C(=O)c2ccc(-c3cccc4nc(NC(=O)C5CC5)nn34)cc2)C1 [Compound 1, Cyclopropanecarboxylic acid{5-[4-(3,3-dimethyl-azetidine-1-carbonyl)-phenyl]-[1,2,4]triazolo[1,5-a]pyridin-2-yl}-amide]?
Answer: Microsomal stability, percentage of compound remaining after 60 minutes, Rat [1]: 76-100%; Microsomal stability, percentage of compound remaining after 60 minutes, Human [2]: 76-100%; Ki (JAK1): 6.9 nM; EC50 [3]: 539 ± 130 nM; IC50 ([4]; Homo sapiens, IL-6 stimulation, FACS, CD4+ cells, mean of 3 healthy volunteers, read-out: pIC50 in the inhibition of STAT1 phosphorylation (converted)): 245 nM; selectivity for JAK1 vs. JAK2 (STAT1 vs STAT5) ([4]; IL-6 pSTAT1 vs GM-CSF pSTAT5, human whole blood FACS): 17.6 fold
